Laboratory results: patent publication US20160206577A1, “NOVEL DRUG FORMULATION” (FAB PHARMA SAS, priority 2013, published 2016)

Assays:
[1] = commercial intravenous formulations; cited from earlier work
[2] = tested on: methicillin-susceptible Staphylococcus aureus (MSSA); assay: Systemic mouse infection model against MSSA; assay type: in vivo; conditions: CD-1 mice, combined n=3 studies
Description: (§1) The aim of this study was to compare the in vivo efficacy of the prior art historical formulation with a novel nanosuspension of the present invention using a murine systemic infection model against both a susceptible (MSSA) and a methicillin resistant (MRSA) strains of S. aureus.
(§2) Three independent studies were run against each isolate (one MSSA and one MRSA), the data for the three studies combined and analysis performed. Bacterial isolates were grown to log phase in a liquid culture. Bacteria were diluted in 8% mucin to a concentration to achieve at least 90% mortality within 48 hours after infection. Six CD-1 female mice, 18-20 grams, were allocated per compound (I) concentration and were infected with 0.5 ml of bacterial suspension via intraperitoneal injection. Five minutes post-infection, mice were treated via intravenous administration. A nanosuspension of the invention (prepared according to Example 3) was prepared fresh just prior to single IV dose delivery at 50, 100 and 200 mg/kg (dosage of compound (I)). The prior art historical formulation of compound (I) (formulated at 10 mg/mL in 20% HPBCD, and 1% glucose) and vancomycin (Sigma Aldrich) were also administered IV at one dose and were used as comparators. Infection control mice were dosed with saline. Survival was assessed for 48 hours post infection. Date of death was recorded and a Probit analysis was performed to determine the PD50 (50% protective dose).

[3] = tested on: methicillin-resistant Staphylococcus aureus (MRSA 300); assay: Systemic mouse infection model against MRSA; assay type: in vivo; conditions: CD-1 mice, combined n=3 studies
Description: as §1, §2

[4] = tested on: MSSA and MRSA infections; conditions: murine model; cited from earlier work
[5] = tested on: Staphylococcus aureus MSSA, MRSA, VISA and VRSA strains; conditions: pathogenic MSSA; cited from earlier work
[6] = cited from earlier work
[7] = Particle size of suspensions made with concentrated aqueous PVP (solvent evaporation attempts); assay type: physicochemical; conditions: low molecular weight PVP (3,500 Da), concentrated aqueous polymer solution
Excerpt: Alternative solvent evaporation systems such as oil-in-oil and water-in-oil systems were investigated, however large particle sizes were still observed. In an attempt to reduce solvent dissolution into the continuous phase of the oil-in-water system, the aqueous phase was saturated with different salts to reduce solvent solubility. However, little benefit was achieved through the use of the saturated salt systems, as large crystals were still observed. It was thought that the use of a concentrated aqueous polymer solution would disrupt or prevent crystal formation. Multiple molecular weights and concentrations of PVP were studied. […] In the expectation of further reducing the particle size (to <1 μm i.e. to nanoparticulate form) further surfactants were added. However, by contrast, the addition of further surfactants to the solution yielded large size growth of particles.

[8] = single IV dose 50 mg/kg, 48 h post infection
[9] = single IV dose, Probit analysis

CC(O)COC[C@H]1O[C@@H]2O[C@H]3[C@H](O)[C@@H](O)[C@@H](O[C@H]4[C@H](O)[C@@H](O)[C@@H](O[C@H]5[C@H](O)[C@@H](O)[C@@H](O[C@H]6[C@H](O)[C@@H](O)[C@@H](O[C@H]7[C@H](O)[C@@H](O)[C@@H](O[C@H]8[C@H](O)[C@@H](O)[C@@H](O[C@H]1[C@H](O)[C@H]2O)O[C@@H]8COCC(C)O)O[C@@H]7COCC(C)O)O[C@@H]6COCC(C)O)O[C@@H]5COCC(C)O)O[C@@H]4COCC(C)O)O[C@@H]3COCC(C)O (stereo partly drawn) [HPBCD, hydroxypropyl-beta-cyclodextrin]
Maximum reported safe daily dose [1]: 16 g/day

CN[C@H](CC(C)C)C(=O)N[C@H]1C(=O)N[C@@H](CC(N)=O)C(=O)N[C@H]2C(=O)N[C@H]3C(=O)N[C@H](C(=O)N[C@H](C(=O)O)c4cc(O)cc(O)c4-c4cc3ccc4O)[C@H](O)c3ccc(c(Cl)c3)Oc3cc2cc(c3O[C@@H]2O[C@H](CO)[C@@H](O)[C@H](O)[C@H]2O[C@H]2C[C@](C)(N)[C@H](O)[C@H](C)O2)Oc2ccc(cc2Cl)[C@H]1O [Vancomycin, vancomycin]
% survival [2, 8]: 100% | Survival [2, 8]: 18/18 | PD50 (50% protective dose) [2, 9]: <50 mg/kg | % survival [3, 8]: 100% | Survival [3, 8]: 18/18 | PD50 (95% C.I.) [3, 9]: <50 mg/kg

CCc1cc(O)c(Oc2ccc(C(N)=O)cc2F)cc1F [compound (I), 4-(4-ethyl-5-fluoro-2-hydroxyphenoxy)-3-fluorobenzamide]
In vivo activity [4]: active in vivo | In vitro activity [5]: highly active | Water-solubility [6]: relatively poor | Concentration at which compound (I) may be formulated ([6]; prior art historical formulation (water, glucose monohydrate, HPBCD)): up to 11.3 mg/mL | Particle size of suspension [7]: 4.4 μm
